Data published in publication PMC6133161, “Thiazoles with cyclopropyl fragment as antifungal, anticonvulsant, and anti-Toxoplasma gondii agents: synthesis, toxicity evaluation, and molecular docking study” (Medicinal Chemistry Research, 2018).
Values after ≈ are worked out from the molar mass of the structure shown.

Columns and labels:
C. dubliniensis = test: Broth microdilution MIC/MFC, clinical isolate; type: cell-based; settings: Candida dubliniensis, C. dubliniensis clinical strain; for MFC: read-out: MFC; for MIC: read-out: MIC
Excerpt: (§1) In the study of antifungal activity of the compounds 3a–3j, 15 clinical strains of different species of yeasts from Candida species, namely C. albicans, C. dubliniensis C. famata, C. inconspicua, C. krusei, C. tropicalis, C. glabrata, C. lambica, C. kefyr, C. lusitaniae, C. parapsilosis, C. guilliermondii, C. lusitaniae, C. pulcherrima and C. sake were also used. These fungi were isolated by the author (from Department of Pharmaceutical Microbiology of Medical University in Lublin, Poland) from different clinical materials, e.g., from upper respiratory tract of hospitalized patients including cancer patients (i.e., with non-small cell lung cancer or hematological malignancies). Some patients were after pre-operative or post-operative chemotherapy (treated with etoposide or cis-platin given in doses according to the standard procedures), patients with chronic hepatitis C (undergoing peginterferon and ribavirin therapy or without antiviral therapy), patients with diabetes, elderly people, aged of 65 years old or older, staying in close population, such as a care centre and people staying outside the home care. The Ethical Committee of the Medical University of Lublin approved the study protocol (No. KE-0254/75/2011). The isolates were identified by standard diagnostic methods—biochemical microtest, e.g., API 20C AUX, ID 32C, API Candida (bioMérieux) on the basis of assimilation of various substrates. All the used microbial cultures were first subcultured on nutrient agar or Sabouraud agar for bacteria and fungi, respectively. The RPMI 1640 with MOPS (for fungi) were inoculated with the suspensions of fungal species. Microbial suspensions were prepared in sterile saline (0.85% NaCl) with an optical density of 0.5 McFarland standard scale (Wiegand et al. [2008]). Samples containing examined compounds were dissolved in dimethyl sulfoxide (DMSO). Furthermore, fungal suspensions were put onto Petri dishes with solid media containing 2 mg/ml of the tested compounds followed incubation under appropriate conditions. The inhibition of microbial growth was judged by comparison with a control culture prepared without any sample tested. Nystatin (Sigma) was used as a reference antifungal compound. Subsequently MIC minimal inhibitory concentration (MIC) of the compounds was examined by the microdilution broth method, using their two-fold dilutions in RPMI 1640 broth with MOPS prepared in 96-well polystyrene plates. Final concentrations of the compounds ranged from 1000 to 0.0038 µg/ml. Microbial suspensions were prepared in sterile saline with an optical density of 0.5 McFarland standard. Next fungal suspension was added per each well containing broth and various concentrations of the examined compounds. After incubation, the MIC was assessed spectrophotometric as the lowest concentration of the samples showing complete fungal growth inhibition. Appropriate DMSO, growth and sterile controls were carried out. The medium with no tested substances was used as a control (Wiegand et al. [2008]). The minimal fungicidal concentration (MFC) are defined as the lowest concentration of the compounds that is required to kill a particular fungal species. MFC was determined by removing the culture using for MIC determinations from each well and spotting onto appropriate agar medium. The plates were incubated. The lowest compounds concentration with no visible growth observed was assessed as a fungicidal concentration. All the experiments were repeated three times and representative data are presented.
(§2) The MFC/MIC ratios were calculated in order to determine fungicidal (MFC/MIC ≤ 4) or fungistatic (MFC/MIC > 4) effect of the tested compounds (O’Donnell et al. [2010]).

C. glabrata = test: Broth microdilution MIC/MFC, clinical isolate; type: cell-based; settings: Nakaseomyces glabratus, C. glabrata clinical strain; for MFC: read-out: MFC; for MIC: read-out: MIC
Excerpt: as §1, §2

C. inconspicua = test: Broth microdilution MIC/MFC, clinical isolate; type: cell-based; settings: Pichia inconspicua, C. inconspicua clinical strain; for MFC: read-out: MFC; for MIC: read-out: MIC
Excerpt: as §1, §2

C. kefyr = test: Broth microdilution MIC/MFC, clinical isolate; type: cell-based; settings: C. kefyr clinical strain; for MFC / MIC: Kluyveromyces marxianus; for MFC: read-out: MFC; for MIC: read-out: MIC
Excerpt: as §1, §2

C. lambica = test: Broth microdilution MIC/MFC, clinical isolate; type: cell-based; settings: Pichia fermentans, C. lambica clinical strain; for MFC: read-out: MFC; for MIC: read-out: MIC
Excerpt: as §1, §2

C. parapsilosis = test: Broth microdilution MIC/MFC, clinical isolate; type: cell-based; settings: Lodderomyces parapsilosis, C. parapsilosis clinical strain; for MFC: read-out: MFC; for MIC: read-out: MIC
Excerpt: as §1, §2

C. pulcherrima = test: Broth microdilution MIC/MFC, clinical isolate; type: cell-based; settings: C. pulcherrima clinical strain; for MFC: read-out: MFC; for MIC: read-out: MIC
Excerpt: as §1, §2

C. tropicalis = test: Broth microdilution MIC/MFC, clinical isolate; type: cell-based; settings: Candida tropicalis, C. tropicalis clinical strain; for MFC: read-out: MFC; for MIC: read-out: MIC
Excerpt: as §1, §2

[1] = system: maximal electroshock seizures; test: Maximal electroshock seizure (MES) test; type: in vivo, mouse; settings: mice; for responders at 100 mg/kg: 100 mg/kg ip, read-out: X/Y number of mice protected (X) per number of mice tested (Y) (converted)
Protocol: For in vivo tests that assessed anticonvulsant properties of the test compounds 3a–3j adult male Albino Swiss (CD-1) mice weighing between 18 and 22 g were used. The animals were housed in groups of ten mice per cage at room temperature of 22 ± 2 °C, under light/dark (12:12) cycle. The animals had free access to food and tap water before the experiments. The ambient temperature of the experimental room and humidity (50 ± 10%) were kept consistent throughout all the tests. For behavioral experiments the animals were selected randomly. Each experimental group consisted of 4–8 animals/dose. The experiments were performed between 9 AM and 2 PM. Immediately after the in vivo assay the animals were euthanized by cervical dislocation. All procedures were approved by the Local Ethics Committee of the Jagiellonian University in Krakow (34/2018, 1.02.2018)) and the treatment of animals was in full accordance with ethical standards laid down in respective Polish and EU regulations (Directive No. 86/609/EEC). For in vivo tests the compounds 3a–3j were prepared in 1% Tween 80 solution (POCH, Poland) and they were administered by the intraperitoneal route. Control mice received 1% Tween 80. Pentylenetetrazole (PTZ), pilocarpine hydrochloride and scopolamine butylbromide were provided by Sigma Aldrich (Poland). For the tests they were prepared in 0.9% saline (Polfa Kutno, Poland). PTZ and pilocarpine were administered 60 min after the test compound or vehicle. To assess anticonvulsant properties of the test compounds anticonvulsant screening was conducted. Four assays were used: PTZ, maximal electroshock seizure (MES), 6-Hz and pilocarpine tests. In these assays the dose of 100 mg/kg was chosen as a starting dose. If it turned out to be effective, a lower dose (30 mg/kg) was also tested. MES test was performed according to a method previously described (Sałat et al. [2005]). In this test vehicle-treated mice and drug-treated mice received a stimulus of 25 mA delivered by an electroshock generator (Hugo Sachs rodent shocker, Germany) to induce maximal seizures (tonic extension) of hind limbs. Electroconvulsions were produced with the use of auricular electrodes and the stimulus duration was 0.2 s. Tonic extension of the hind limbs was regarded as the endpoint for this procedure.

[2] = system: Toxoplasma gondii RH strain; test: [3H]-uracil incorporation assay in VERO host cells; settings: Toxoplasma gondii, Vero, read-out: Proliferation of Toxoplasma gondii RH strain ± SD

SMILES	MFC (C. dubliniensis) [µg/mL]	MIC (C. dubliniensis) [µg/mL]	MFC (C. glabrata) [µg/mL]	MIC (C. glabrata) [µg/mL]	MFC (C. inconspicua) [µg/mL]	MIC (C. inconspicua) [µg/mL]	MFC (C. kefyr) [µg/mL]	MIC (C. kefyr) [µg/mL]	MFC (C. lambica) [µg/mL]	MIC (C. lambica) [µg/mL]	MFC (C. parapsilosis) [µg/mL]	MIC (C. parapsilosis) [µg/mL]	MFC (C. pulcherrima) [µg/mL]	MIC (C. pulcherrima) [µg/mL]	MFC (C. tropicalis) [µg/mL]	MIC (C. tropicalis) [µg/mL]	responders at 100 mg/kg ([1]; Mus musculus, MES test) [%]	activity at 0.98 µg/mL [2] [%]	activity at 1.95 µg/mL [2] [%]	activity at 3.91 µg/mL [2] [%]	further results
Clc1ccc(-c2csc(N/N=C/C3CC3)n2)cc1 [Compound 3c, (E)-4-(4-Chlorophenyl)-2-(2-(cyclopropylmethylene)hydrazinyl)thiazole]	0.06 (≈ 0.216 µM)	0.03 (≈ 0.108 µM)	> 1000	500 (≈ 1800 µM)	3.91 (≈ 14.1 µM)	0.98 (≈ 3.53 µM)	> 1000	31.2 (≈ 112 µM)	> 1000	125 (≈ 450 µM)	0.12 (≈ 0.432 µM)	0.03 (≈ 0.108 µM)	> 1000	125 (≈ 450 µM)	0.12 (≈ 0.432 µM)	0.12 (≈ 0.432 µM)	75	106.78 ± 0.02	108 ± 4.34	114 ± 6.65	animals with reduced seizures ([1]; MES test, 100 mg/kg): 75%; responders at 30 mg/kg ([1]; Mus musculus, MES test, 30 mg/kg ip, read-out: X/Y number of mice protected (X) per number of mice tested (Y)): 0%; anticonvulsant activity in MES test ([1]; 30 mg/kg): not active
Cc1ccc(-c2csc(N/N=C/C3CC3)n2)cc1 [Compound 3d, (E)-2-(2-(Cyclopropylmethylene)hydrazinyl)-4-p-tolylthiazole]	0.12 (≈ 0.466 µM)	0.06 (≈ 0.233 µM)	> 1000	15.6 (≈ 60.7 µM)	0.98 (≈ 3.81 µM)	0.12 (≈ 0.466 µM)	7.81 (≈ 30.3 µM)	1.95 (≈ 7.58 µM)	> 1000	15.6 (≈ 60.7 µM)	0.24 (≈ 0.933 µM)	0.06 (≈ 0.233 µM)	> 1000	15.6 (≈ 60.7 µM)	0.12 (≈ 0.466 µM)	0.06 (≈ 0.233 µM)	37.5	88.7 ± 2.63	100 ± 4.54	93.4 ± 5.18	activity at 7.81 µg/mL [2]: 90.4 ± 3.29%; activity at 15.63 µg/mL [2]: 84.41 ± 0.08%
COc1ccc(-c2csc(N/N=C/C3CC3)n2)cc1 [Compound 3f, (E)-2-(2-(Cyclopropylmethylene)hydrazinyl)-4-(4-methoxyphenyl)thiazole]	0.06 (≈ 0.219 µM)	0.015 (≈ 0.0549 µM)	> 1000	31.2 (≈ 114 µM)	0.98 (≈ 3.59 µM)	0.03 (≈ 0.11 µM)	7.81 (≈ 28.6 µM)	1.95 (≈ 7.13 µM)	> 1000	31.2 (≈ 114 µM)	0.98 (≈ 3.59 µM)	0.12 (≈ 0.439 µM)	> 1000	31.2 (≈ 114 µM)	0.98 (≈ 3.59 µM)	0.06 (≈ 0.219 µM)	50	89.61 ± 0.77	84.2 ± 5.47	79.2 ± 6.07	MFC/MIC (C. kefyr): 4; activity at 7.81 µg/mL [2]: 86.2 ± 6.35%; activity at 15.63 µg/mL [2]: 63 ± 4.88%; activity at 20 µg/mL [2]: 58.5 ± 3.72%; activity at 25 µg/mL [2]: 57.8 ± 6.09%; activity at 31.25 µg/mL [2]: 68 ± 5.37%
Fc1ccc(-c2csc(N/N=C/C3CC3)n2)c(F)c1 [Compound 3g, (E)-2-(2-(Cyclopropylmethylene)hydrazinyl)-4-(2,4-difluorophenyl)thiazole]	0.48 (≈ 1.72 µM)	0.24 (≈ 0.859 µM)	> 1000	15.6 (≈ 55.9 µM)	1.98 (≈ 7.09 µM)	0.48 (≈ 1.72 µM)	31.2 (≈ 112 µM)	31.2 (≈ 112 µM)	> 1000	125 (≈ 448 µM)	1.95 (≈ 6.98 µM)	0.98 (≈ 3.51 µM)	> 1000	250 (≈ 895 µM)	0.98 (≈ 3.51 µM)	0.06 (≈ 0.215 µM)	37.5	105 ± 9.98	91.8 ± 1.12	81.4 ± 1.6	activity at 7.81 µg/mL [2]: 78.6 ± 4.6%; activity at 15.63 µg/mL [2]: 58.1 ± 2.94%; activity at 20 µg/mL [2]: 60.9 ± 3.81%
